# Key:
# [1] = Open stability study (25 °C, 60% RH, open conditions); format: physicochemical; conditions: after 4 weeks, content at day 0 set as 100%
# Method: Open stability was conducted at 25 °C, 60% RH, under open conditions without package and nitrogen protection. Accelerated stability was conducted at 40 °C, 75% RH, packaged with aluminum foil bags. The ubiquinol polymorph II and UQ-NC cocrystal were taken out at various intervals during exposure (open stability at 0, 3, 7, 14, 21, and 28 days and accelerated stability at 0, 1, 2, 3, and 6 months).
# An Agilent 1260 series HPLC was used to determine the content of ubiquinol. The HPLC was equipped with a quaternary pump (G1311C), diode-array detector (G1315D), and a 4.6 mm × 100 mm, 2.7 μm packing L1 column. The detector was set at 290 nm. A mobile phase consisting of methanol and n-hexane (85/15, v/v) was run for 10 min at 1.5 mL/min. An injection of 20 μL was performed and the column temperature was set at 35 °C.
# [2] = set-up: method as in doi:10.1016/j.jff.2008.09.010; conditions: single 100 mg/day dose, individuals of >60 years; cited from earlier work
# [3] = 200 mg/day with a main meal, 2-week supplementation, ten older men; cited from earlier work
# [4] = set-up: method as in PMID 19096107; conditions: patients changed from ubiquinone to ubiquinol; cited from earlier work
# [5] = set-up: method as in PMID 33673604; conditions: 1500 mg/day, multiple-system atrophy; cited from earlier work
# human dermal fibroblasts = system: human dermal fibroblasts; set-up: method as in PMID 33482334; conditions: compared to ubiquinone; cited from earlier work
# [6] = set-up: method as in PMID 16551570; conditions: oral; cited from earlier work
# [7] = set-up: method as in PMID 7666987; conditions: 5-year period; cited from earlier work
# [8] = Powder dissolution in simulated gastric fluid (SGF) with 0.5% tween 80; format: physicochemical; conditions: SGF with 0.5% tween 80, 37 °C, up to 180 min
# Method: (§1) Powder dissolution experiments were conducted in simulated intestinal fluid (SIF) and simulated gastric fluid (SGF) with 0.5% tween 80 at 37 °C using a Mini-Bath dissolution device equipped with a Julabo ED-5 heater/circulator. SIF was prepared by dissolving 6.8 g of KH2PO4 in 500 mL of water and then the pH was adjusted to 6.8 with 0.1 mol/L og NaOH solution. In total, 10 g of pancreatin was added and finally the solution was diluted to 1000 mL with water to obtain the SIF. SGF was prepared by mixing 16.4 mL of 10% HCl solution, 800 mL of water, and 10g of pepsin. Finally, the solution was diluted to 1000 mL with water to obtain the SGF. A total of 9.3 mg of cocrystal and 8.2 mg of polymorph II were added into 20 mL of the buffer solution. The stirring speed was set to 75 rpm. To minimize the size effect on the dissolution results, the ubiquinol cocrystal and polymorph II were sieved through 80-mesh sieves. Samples were collected at 5, 15, 20, 25, 30, 40, 50, 60, 80, 130, and 180 min each time, and were filtered through the 0.45 μm nylon filters. The concentration of ubiquinol was determined using HPLC. The detailed HPLC analysis method is described in Section 2.10.
# (§2) An Agilent 1260 series HPLC was used to determine the content of ubiquinol. The HPLC was equipped with a quaternary pump (G1311C), diode-array detector (G1315D), and a 4.6 mm × 100 mm, 2.7 μm packing L1 column. […]
# [9] = Powder dissolution in simulated intestinal fluid (SIF) with 0.5% tween 80; format: physicochemical; conditions: SIF with 0.5% tween 80, 37 °C, up to 180 min
# Method: as §1, §2
# [10] = Pharmacokinetic study in male Sprague Dawley rats, plasma total coenzyme Q10; format: in vivo; conditions: rat, gavage, 100 mg/kg as ubiquinol equivalents
# Method: Pharmacokinetic experiments were conducted on male Sprague Dawley rats to compare the oral exposure of the UQ-NC cocrystal and the ubiquinol marketed form II. The two ubiquinol samples were dispersed homogeneously in 0.5% CMC-Na (sodium carboxymethylcellulose) and 0.5% tween 80 aqueous solution to obtain the suspension of 10 mg/mL of ubiquinol. Twelve male Sprague Dawley rats weighing […] were randomly allocated into two groups (six rats in each group). Each received gavage administration at a dose of 100 mg/kg body (expressed as ubiquinol equivalents). After this administration, approximately 200 μL of blood sample was collected from the orbital sinus into heparinized tubes at 0, 1, 2, 3, 4, 6, 8, and 24 h for each rat.
# In this experiment, the whole process was protected from light. An aliquot of 100 µL of plasma sample was added to 100 µL of p-benzoquinone and then placed for 10 min after vortex mixing. Next, a 400 µL methanol solution containing 1 µg/mL of IS Q9 and 1mL of n-hexane was added. The mixture was vortexed for 5 min and centrifuged at 14,000 rpm for 1 min. In total, 0.825 mL of the upper extract was transferred and dried under the condition of 30 °C nitrogen, and 200 µL of ethanol equal solution was added for re dissolution, vortexed, and mixed well. An aliquot of 4.00 µL of supernatant was injected for an LC-MS/MS analysis.
# The quantification of coenzyme Q10 in the plasma samples was accomplished using an AB Sciex Triple Quad 4500 LC-MS instrument manufactured by SCIEX Co., Ltd., Framingham, MA, USA. Chromatography consisted of a Column NO.ZORBAX Eclipse Plus C18 (50 mm × 4.6 mm, 1.8 μm). The mobile phase consisted of acetonitrile and alcohol (50/50, v/v) at a flow rate of 1.0 mL min-1. An injection of 10 μL was performed and the column temperature was set to 40 °C. The detector was set at 290 nm. Multiple reaction monitoring modes (MRM) were used to perform the detection and quantification, with m/z 863.8→197.4 for coenzyme Q10. The DAS 2.0 program was used to perform the PK analysis.
# [11] = set-up: method as in earlier work; conditions: after four weeks, open conditions, 25 °C; cited from earlier work
smiles,measurement,setting,value
"COc1c(O)c(C)c(C/C=C(\C)CC/C=C(\C)CC/C=C(\C)CC/C=C(\C)CC/C=C(\C)CC/C=C(\C)CC/C=C(\C)CC/C=C(\C)CC/C=C(\C)CCC=C(C)C)c(O)c1OC [polymorph I, ubiquinol]",assay value of ubiquinol,[1],28.3%
COc1c(O)c(C)c(C/C=C(\C)CC/C=C(\C)CC/C=C(\C)CC/C=C(\C)CC/C=C(\C)CC/C=C(\C)CC/C=C(\C)CC/C=C(\C)CC/C=C(\C)CCC=C(C)C)c(O)c1OC [ubiquinol],increase of plasma AUC0–72h compared with ubiquinone,[2],430%
same,plasma AUC0–72h compared with subjects receiving ubiquinone,[2],4.3 fold
same,plasma CoQ10 status,[3],significant increase
same,symptoms of heart failure,[4],significantly improved
same,decline in UMSARS part 2 score compared to placebo,[5],significantly smaller decline
same,tolerability,[5],well-tolerated
same,"reverting the expression of the senescent phenotype (β-galactosidase positivity, p21, collagen type 1, elastin)",human dermal fibroblasts,more efficient
"COC1=C(OC)C(=O)C(C/C=C(\C)CC/C=C(\C)CC/C=C(\C)CC/C=C(\C)CC/C=C(\C)CC/C=C(\C)CC/C=C(\C)CC/C=C(\C)CC/C=C(\C)CCC=C(C)C)=C(C)C1=O [CoQ10, Coenzyme Q10]",orally administered absorption efficiency,[6],2–3%
NC(=O)c1cccnc1 [nicotinamide],reduction in the development of insulin-dependent diabetes mellitus,[7],50%
"COc1c(O)c(C)c(C/C=C(\C)CC/C=C(\C)CC/C=C(\C)CC/C=C(\C)CC/C=C(\C)CC/C=C(\C)CC/C=C(\C)CC/C=C(\C)CC/C=C(\C)CCC=C(C)C)c(O)c1OC [polymorph II, ubiquinol]",AUC (dissolution),[8],1500 µg·h/mL
same,"Cmax (dissolution, ubiquinol concentration)",[8],30 µg/mL
same,AUC (dissolution),[9],4500 µg·h/mL
same,"Cmax (dissolution, ubiquinol concentration)",[9],90 µg/mL
same,AUC0–8h,[10],0.1919 µg·h/mL
same,Cmax,[10],0.0712 µg/mL
same,MRT,[10],43.3 h
same,T1/2,[10],29.9 h
same,Tmax,[10],8.0 h
same,assay value of ubiquinol,[1],94.2%
same,ubiquinol transformed to ubiquinone,[11],about 6.9%
